Reference: patent US20220267271A1, “WNT ACTIVATORS AND METHODS OF USE” (MAYO FOUNDATION FOR MEDICAL EDUCATION AND RESEARCH, priority 2019, published 2022)

What was measured:
Wnt/β-catenin signaling = assay: Luciferase reporter assay (Super8XTOPFlash) for Wnt/β-catenin signaling in HEK293 cells; format: cell-based; settings: 24 h; for EC50: Homo sapiens, Wnt3A plasmid-transfected HEK293 cells, 30-30,000 nM, mean and SD of 3-7 independent experiments; for Wnt reporter activity / activation of Wnt/β-catenin signaling: HEK293 cells
Protocol: (A) structures of niciosamide and CI-994; (B) HEK293 cells were transfected with Super8XTOPFlash and β galactosidase vectors along with Wnt3A or control vector. After 24 hours incubation, cells were treated with CI-994 at the indicated concentration for 24 hr. The luciferase activity was then measured and normalized to the activity of the β-galactosidase. (C) HT1080 cells stably transduced LRP6 with HA tag were treated with niciosamide and CI-994 at the indicated concentrations for 24 h. The levels of HA-LRP6 were examined by Western blot with anti-HA antibody. (D) Western blots showing the depletion of LRP6 after 2 days of transiently transfection of 50 nM LRP6 siRNA in HEK293 cells. ON-TARGETplus double-stranded siRNA oligomers against human LRP6 and non-specific scrambled siRNA control (Stealth RNAi™ siRNA Negative Control, Med GC) were purchased from Thermo Scientific. siRNA LRP6-1, siRNA LRP6-2 and control siRNA were Thermo Scientific catalog numbers J-003845-09, J-003845-11 and 12935300, respectively. (E) HEK293 cells were transfected with LRP6 siRNAs, and after 8 h incubation were further transfected with Super8XTOPFlash construct and β galactosidase-expressing vector. After 24 h incubation, the cells were treated with CI-994 (16 μM) for 24 h. The luciferase activity was then measured and normalized to β-galactosidase activity. All the values are the average of triplicate determinations with the SD values indicated by error bars. **P<0.01 versus corresponding control value.
HEK293 cells were transfected with SuperXTOPFlash and β-galactosidase vectors along with Wnt3A or control vector. After 24 h incubation, cells were treated with 1015 or 1039 at the indicated concentrations for 24 h. The luciferase activity was then measured and normalized to the activity of the β-galactosidase. All the values are the average of triplicate determinations with the SD values indicated by error bars. This experiment is representative of at least three such experiments performed with similar data.
Luciferase reporter assay for Wnt/β-catenin signaling: HEK293 cells were plated into 24-well plates. After overnight culture, the cells were transiently transfected with the Super8XTOPFlash luciferase construct and β-galactosidase-expressing vector along with or without Wnt3A plasmid. After 24 h incubation, cells were treated with each individual compound at the indicated concentrations for 24 h. Cells were then lysed and both luciferase and β-galactosidase activities were determined. The luciferase activity was normalized to the β-galactosidase activity.
HEK293 cells were plated into 24-well plates. After overnight culture, the cells were transiently transfected with the Super8XTOPFlash luciferase construct and β-galactosidase-expressing vector along with the Wnt3A plasmid. After 24 h incubation, the cells were treated with each individual compound at 30-30,000 nM in triplication for 24 h. The cells were then lysed, and luciferase and β-galactosidase activities were determined with the luciferase assay system (Promega, Cat. #E1501) and β-galactosidase assay system (Promega, Cat. #E2000), respectively. The luciferase activity was normalized to the s-galactosidase activity, and the EC50 values were calculated by use of GraphPad software, and shown in the below table. All the EC50 values (mean and SD) are from 3-7 independent experiments.

[1] = Metabolic stability in mouse liver microsomes; format: in vitro ADME; settings: 2 μM, five time points over 40 min, NADPH
Protocol: Metabolic stability of several compounds (1009, 1011, 1015, 1020, and 1056) and 2 reference compounds (propranolol and imipramine) were determined in mouse liver microsomes at five time points over 40 min using HPLC-MS. Metabolic stability is defined as the percentage of parent compound lost over time in the presence of a metabolically active test system.
Metabolic stability in mouse liver microsomes: Mouse hepatic microsomes were isolated from pooled, perfused livers of Balb/c male mice according to the standard protocol. The batch of microsomes was tested for quality control using Imipramine, Propranolol and Verapamil as reference compounds. Microsomal incubations were carried out in 96-well plates in 5 aliquots of 40 μL each (one for each time point). Liver microsomal incubation medium contained PBS (100 mM, pH 7.4), MgCl2 (3.3 mM), NADPH (3 mM), glucose-6-phosphate (5.3 mM), glucose-6-phosphate dehydrogenase (0.67 units/ml) with 0.42 mg of liver microsomal protein per ml. Control incubations were performed replacing the NADPH-cofactor system with PBS. Test compound (2 μM, final solvent concentration 1.6%) was incubated with microsomes at 37° C., shaking at 100 rpm. Incubations were performed in duplicates. Five time points over 40 minutes had been analyzed. The reactions were stopped by adding 12 volumes of 90% acetonitrile-water to incubation aliquots, followed by protein sedimentation by centrifuging at 5500 rpm for 3 minutes. […]. Supernatants were analyzed using the HPLC system coupled with tandem mass spectrometer.
The elimination constant (kel), half-life (t1/2) and intrinsic clearance (Clint) were determined in plot of […] versus time, using linear regression analysis: […]

HDAC = assay: Histone Deacetylase (HDAC) activity assay (fluorometric kit); format: biochemical; settings: 2 μM
Protocol: HDAC enzymatic activities of compounds were measured by fluorometric HDAC Activity Assay kit (Abcam. #ab156064). Trichostatin A, a known HDAC inhibitor, was used as the positive control. All the values are the average of triple determination with the s.d. indicated by error bars. **P<0.01 versus the corresponding control value.
Histone Deacetylase (HDAC) activity assay: Histone Deacetylase (HDAC) activity assay kit (ab156064) was purchased from Abcam, and the effects of the tested compounds on HDAC activity were examined according to the manufacturers specifications.

β-catenin = β-catenin level in N2a cells by Western blotting; format: cell-based; settings: 24 h; for β-catenin level: concentration as low as 0.1 μM; for EC50: Mus musculus, 3-4 independent experiments, read-out: EC50 values (X±SD), β-catenin level
Protocol: (A,C) N2a cells were treated with CI-994 at the indicated concentration for 24 h, and the levels of β-catenin (A) and BACE1 (C) were examined by Western blotting. (B,D) The band intensity of β-catenin and BACE1 was quantified and normalized to the corresponding signal for actin. The results represented in the histograms are shown as the mean±SD and are the average of three independent experiments. *P<0.05, **P<0.01 versus corresponding control value.
N2a cells were treated with 1015, 1011, or 1020 at the indicated concentration for 24 h. (A) the levels of total cellular β-catenin were examined by Western blotting. (B) The intensity of the β-catenin bands were quantified and normalized to the corresponding signal for actin. The results represented in the histograms are shown as the mean±SD and are the average of 3-4 independent experiments, and the EC50 values were calculated with graphpad prism.
Western blotting: Cells in 6-well plates were lysed in 0.5 ml of lysis buffer (phosphate-buffered saline containing 1% Triton X-100, 1× Proteinase inhibitor cocktail Complete, and 1 mM PMSF) at 4° C. for 15 min. Equal quantities of protein were subjected to SDS-PAGE under reducing conditions. Following transfer to immobilon-P transfer membrane, successive incubations with a primary antibody, and a horseradish peroxidase-conjugated secondary antibody or IRDye® 680RD goat anti-rabbit/mouse secondary antibodies were carried out for 60-120 min at room temperature. The immunoreactive proteins were then detected using the ECL system or the Odyssey infrared imaging system (LI-COR). Films showing immunoreactive bands were scanned by Hp Scanjet 5590.

In the case of `Nc1ccccc1NC(=O)c1ccc(C(=O)NCCN2CCC3(CCCCC3)CC2)cc1` [Compound 1020], the EC50 (Wnt/β-catenin signaling) is reported as 0.86 ± 0.278 µM, the “stability in mouse hepatic microsomal system” value (shortened to “stability”) [1] is reported as “unstable” and the “inhibitory effects on HDAC activity” value (HDAC) is reported as “do not display any inhibitory effects”. For the same compound, the β-catenin level (β-catenin) was “significantly enhanced” and the EC50 (β-catenin) was 1.02 ± 0.24 µM.

With `CC(=O)Nc1ccc(C(=O)Nc2ccccc2N)cc1` [CI-994, 4-(acetylamino)-N-(2-aminophenyl)benzamide, reference compound] the “Wnt reporter activity / activation of Wnt/β-catenin signaling” value (Wnt/β-catenin signaling) was “increased” and the β-catenin levels (β-catenin; CI-994 at the indicated concentration) was “significantly increased”.

In the case of `Nc1ccccc1NC(=O)c1ccc(C(=O)NCC2CCN2C2CCCC2)cn1` (stereo not drawn) [Compound 1015], the “Wnt reporter activity / activation of Wnt/β-catenin signaling” value (Wnt/β-catenin signaling) is reported as “activate”, the EC50 (Wnt/β-catenin signaling) is reported as 0.623 ± 0.212 µM and the “stability” value [1] is reported as “good stability”. For the same compound, the “inhibitory effects on HDAC activity” value (HDAC) was “do not display any inhibitory effects”, the β-catenin level (β-catenin) was “significantly enhanced” and the EC50 (β-catenin) was 0.96 ± 0.14 µM.

With `CC1CCCC(C)N1CCNC(=O)c1ccc(C(=O)Nc2ccccc2N)nc1` (stereo not drawn) [Compound 1011] the EC50 (Wnt/β-catenin signaling) was 0.92 ± 0.455 µM, the “stability” value [1] was “good stability” and the “inhibitory effects on HDAC activity” value (HDAC) was “do not display any inhibitory effects”. The β-catenin level (β-catenin) was “significantly enhanced” and the EC50 (β-catenin) was 0.93 ± 0.01 µM.
